According to US7141170B2, “Halogenated solvent remediation” (North Wind, Inc., priority 2004, dated 2006):

How the values were obtained:
[1] = Field evaluation of enhanced in situ bioremediation at Test Area North (sodium lactate injection)
Procedure: A 1-year field evaluation of enhanced in situ bioremediation was performed at Test Area North (“TAN”) of the Idaho National Engineering and Environmental Laboratory. […] The locations of a 5,000 μg/L TCE isopleth (14); 1,000 μg/L TCE isopleth (16); 100 μg/L TCE isopleth (18); and 5 μg/L TCE isopleth (20) are shown by solid lines. FIG. 2 illustrates a cross section of this site, showing the surface of the ground (22), an approximately 63-m (210-feet) fractured basalt unsaturation zone (24) (not drawn to scale), an approximately 60-m (200-feet) fractured basalt aquifer (26), and an impermeable clay interbed (28). […]
The initial electron donor addition strategy involved continuous injection of potable water at 37.85 liters/minute (10 gpm) into Well TSF-05. […] It was determined that the continuous injection of clean water at 37.85 liters/minute (10 gpm) overwhelmed the flux of contaminants from the secondary source. […] This was intended to prevent significant quantities of electron donor from collecting in the injection well and to help prevent biofouling. […]
Eleven monitoring wells (i.e., TAN-D2, TAN-9, TAN-10A, TAN-25, TAN-26, TAN-27, TAN-28, TAN-29, TAN-30A, TAN-31, and TAN-37) were sampled biweekly and analyzed for electron donors, biological activity indicators, competing inorganic electron acceptors and their reduced products, chloroethenes, ethene, pH, temperature, and specific conductivity.

[2] = Surface tension of electron donor solutions (pendant drop); type: physicochemical; settings: for change in surface tension: 0% ethyl lactate
Excerpt: Two fundamental properties used to screen the co-solvent or surfactant properties of a solution are surface tension and interfacial tension. Surface tension measures the force per unit length along the interface between a liquid and air due to its tension. When a co-solvent or surfactant is present in an aqueous liquid at increasing concentrations, the surface tension of that liquid decreases. Interfacial tension is similar to surface tension except that it measures the force per unit length along the interface between two liquid phases arising from the surface free energy. The higher the interfacial tension between two liquids, the less likely one is to dissolve into the other, and the more difficult it is for one to be transported within the other. Thus, perhaps the most significant property of co-solvents and surfactants in the context of chlorinated solvent remediation is that they decrease the interfacial tension between the aqueous phase (groundwater) and the organic nonaqueous phase so that the solubility (or mobility for order-of-magnitude decreases) of the nonaqueous phase is enhanced. The laboratory study performed to confirm the co-solvent properties of the high concentration electron donor solution measured the surface tension of electron donor solutions at various concentrations. Next, interfacial tensions between the same electron donor solutions and nonaqueous phase TCE were measured. Two types of electron donor solutions were used. […] Surface and interfacial tension measurements were made using the pendant drop method (M. J. Rosen, ed., Structure/Performance Relationships in Surfactants, American Chemical Society, Washington […]. Arundel, The Profile Area of Pendant Drops, 82 J. Phys. Chem. 898 (1978)) coupled with real-time video imaging (M. D. Herd et al., Interfacial Tensions of Microbial Surfactants Determined by Real-Time Video Imaging of Pendant Drops, Proceedings paper number SPE/DOE 24206 513-519, SPE/DOE Eighth Symposium on Enhanced Oil Recovery, Tulsa, Okla. (1992)).

[3] = Interfacial tension between electron donor solutions and nonaqueous phase TCE (pendant drop); type: physicochemical; settings: 0% ethyl lactate
Excerpt: Based on the field results presented in Example 1, laboratory studies were preformed to confirm that the enhanced bioavailability of TCE observed in the field was due to co-solvent or surfactant behavior resulting from the use of high concentrations of sodium lactate. Two fundamental properties used to screen the co-solvent or surfactant properties of a solution are surface tension and interfacial tension. Surface tension measures the force per unit length along the interface between a liquid and air due to its tension. When a co-solvent or surfactant is present in an aqueous liquid at increasing concentrations, the surface tension of that liquid decreases. Interfacial tension is similar to surface tension except that it measures the force per unit length along the interface between two liquid phases arising from the surface free energy. The higher the interfacial tension between two liquids, the less likely one is to dissolve into the other, and the more difficult it is for one to be transported within the other. […]
The laboratory study performed to confirm the co-solvent properties of the high concentration electron donor solution measured the surface tension of electron donor solutions at various concentrations. Next, interfacial tensions between the same electron donor solutions and nonaqueous phase TCE were measured. […]

[4] = tested on: TCE-dechlorinating culture derived from TAN-25 groundwater; test: Microcosm dechlorination and electron donor utilization study; type: cell-based
Procedure: Dechlorination studies were carried out to determine if whey powder solutions facilitate complete degradation of target contaminants at reasonable rates. Microcosms were constructed in triplicate sets. These microcosms were amended periodically with whey powder and TCE and analyzed monthly for TCE, its reductive degradation products, electron donor (as both COD and volatile fatty acids (VFAs)), redox, and pH.
An existing laboratory, sodium lactate-fed culture, derived from TAN-25 groundwater undergoing complete anaerobic reductive dechlorination (ARD) of TCE to ethene, was used to inoculate the cultures. Fresh TAN groundwater from the source area was also used to ensure that microbial populations that have been lost as a result of laboratory conditions were present for the evaluation. Serum vials (160 mL) were used as microcosms to grow the cultures. Prior to inoculation, the microcosms, along with all other culture-contact supplies, were autoclaved at 121° C. for 20 minutes and cooled to room temperature. Inoculation of the microcosms was done in a glove box containing nitrogen (95%), carbon dioxide (2.5%), and hydrogen (2.5%). Each microcosm was loaded with the inoculum, which comprised cells from the TCE-dechlorinating culture (1 L), cells from TAN-25 groundwater (1 L), and TAN-37 groundwater (2.5 L) as the media.
The culture cells were used to ensure a robust dechlorinating community was present, and cells were collected from TAN-25 groundwater to ensure the laboratory community was representative of the community at TAN. […] The cell pellets from the dechlorinating culture and TAN-25 groundwater were separated from the supernatant because both contained electron donors, including propionate, acetate, and lactate. TAN-37 groundwater was selected as the medium because it was anaerobic groundwater that contained little or no carbon (40 mg/L as COD with <2.5 ppm acetate and propionate) that might interfere with the evaluation of electron donor utilization. The inoculum mixture was then spiked with TCE (10 ppm), aliquoted (100 mL) into the microcosms, and each respective electron donor was added (˜200 ppm for all electron donors except whey powder [˜400 ppm]). The microcosms were then sealed with butyl-rubber septa and crimped. The headspace of each microcosm was flushed for 10 minutes with 100% nitrogen, and then an initial positive pressure of 5 psig was induced into each one. […] The test microcosms were prepared in triplicate and negative control microcosms were amended with whey powder and LactOil™/propionate. The study included a total of 20 microcosms.
Three months after inoculation, additional electron donor was added to all of the microcosms (200 to 300 mg/L as COD). […] At this point, approximately 50 mL of TAN-37 groundwater was also amended to all of the biotic microcosms to replace the volume lost because of sampling. This was done by placing all of the biotic microcosms into the anaerobic chamber containing nitrogen (95%), carbon dioxide (2.5%), and hydrogen (2.5%); removing the septum; adding TAN-37 groundwater and electron donor; and replacing septum and spiking each microcosm with a TCE stock solution. TCE was amended to all of the microcosms 4 and 6 months after inoculation.
Throughout these studies, the microcosms were monitored monthly for TCE, cis-DCE, trans-DCE, VC, ethene, ethane, methane, lactate, acetate, propionate, butyrate, pH, and Eh. […] Analytical samples (6 mL) were removed using a glass syringe (Hamilton Co., Reno, Nev.) and a 22-gauge sterile needle.

effect on the solution's surface tension ([2]; addition of 1% and 10% ethyl lactate to the different sodium lactate solutions) | Structure (SMILES) | reductive dechlorination of TCE to ethene ([1]; all wells receiving significant lactate concentrations) | TCE concentrations deep in the aquifer soon after addition began ([1]; well TAN-26) | change in surface tension ([2]; sodium lactate concentration increased to 30 and 60%) | change in surface tension ([2]; sodium lactate concentrations from 0.01 to 7%) | interfacial tension as % of the value at a sodium lactate concentration of 0.1% ([3]; sodium lactate 30%) [%] | decrease of interfacial tension ([3]; sodium lactate increased from 0.1 to 3%) | accumulated cis-DCE, average concentration ([4]; 1 month after inoculation) [ppb] | methane accumulated, average ([4]; between 6 and 7 months) [µM] | methane concentration generated ([4]; in 3 months) | TCE remaining ([4]; one month after TCE re-addition, only ethene present) | TCE remaining ([4]; three months after inoculation, only ethene detected) | ethene production as share of amended TCE ([4]; two months after inoculation) [%]
 | CC(O)C(=O)[O-].[Na+] (stereo not shown) [sodium lactate] | Enhanced reductive dechlorination of TCE to ethene was observed | dramatic increase | dramatic decrease | almost no change | 47 | about 26% | 75 | 21 | approximately 50 μM | all of the TCE was gone | all of the TCE was gone | 10
pronounced effect | CCOC(=O)C(C)O (stereo not shown) [ethyl lactate] |  |  |  |  |  |  |  |  |  |  |  | 
